Experimental findings from PubChem BioAssay (NCI) are described below.

Among the test systems are HOP-62 NSCLC; COLO 205 colon; HS 578T breast; A549 NSCLC; U251 CNS; 786-0 renal; OVCAR-8 ovarian; T-47D breast; HCT-15 colon; SK-MEL-2 melanoma.
Assay in all cases: inhibition of tumour cell growth, NCI panel, 48 h

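Grown in 96-well plates, cells were treated for 48 hours with each compound at five concentrations. Insufficient inhibition: endpoint recorded as highest concentration tested. GI50 is the concentration that inhibits growth by half. TGI marks complete inhibition of growth.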

In the case of `CCOC(=O)c1ccc2c(c1)Cc1cc([N+](=O)[O-])ccc1-2`, the TGI was over 100 µM with HOP-62 NSCLC; 78.6 µM in the assay with COLO 205 colon; over 100 µM with HS 578T breast; over 100 µM in the assay on A549 NSCLC; over 100 µM with U251 CNS; over 100 µM with 786-0 renal. The TGI in the assay on OVCAR-8 ovarian, with T-47D breast and in the assay on HCT-15 colon was over 100 µM in each case.
In the case of `COc1ccc2sc3cccc(NCCN(C)C)c3c(=O)c2c1`, the GI50 was 3.57 µM with HOP-62 NSCLC; 1.75 µM in the assay on COLO 205 colon; 2.83 µM in the assay on HS 578T breast; 2.57 µM with A549 NSCLC; 3.14 µM in the assay on 786-0 renal; 3.3 µM in the assay on OVCAR-8 ovarian. For the same molecule, the GI50 in the assay on T-47D breast is 2.76 µM; with HCT-15 colon, 2.24 µM. Moreover, the TGI with HOP-62 NSCLC is 10.7 µM; in the assay with COLO 205 colon it was 3.42 µM; with HS 578T breast it was 13.1 µM; in the assay on A549 NSCLC, 7.15 µM; in the assay with 786-0 renal it was 14.5 µM; with OVCAR-8 ovarian, 12.5 µM. The TGI was determined as 9.78 µM with T-47D breast and 6.65 µM in the assay with HCT-15 colon.
As for `O=C1/C(=C\c2ccc(F)cc2)CN(C(=O)c2ccccc2)C/C1=C\c1ccc(F)cc1`, the GI50 is 3.07 µM with HOP-62 NSCLC; 3.15 µM in the assay on COLO 205 colon; 4.92 µM in the assay on A549 NSCLC; 1.65 µM in the assay with U251 CNS; 1.83 µM in the assay on 786-0 renal; 2.82 µM with OVCAR-8 ovarian. Moreover, the figures for the GI50 in the assay on T-47D breast, with SK-MEL-2 melanoma and in the assay with HCT-15 colon were 6.22 µM, 4.44 µM and 1.5 µM, respectively. Also, the TGI in the assay with HOP-62 NSCLC amounted to 8.5 µM; in the assay on COLO 205 colon, 10 µM; with A549 NSCLC, 71.9 µM; in the assay on U251 CNS, 3.76 µM; in the assay with 786-0 renal, 4.25 µM; in the assay with OVCAR-8 ovarian, 17.5 µM. In addition, the TGI with T-47D breast was determined as 71.4 µM; with SK-MEL-2 melanoma, 19.5 µM; with HCT-15 colon it was 3.53 µM.
As for `COc1c(O)c(OC)c2oc(-c3ccc(O)c(O)c3)c(OC)c(=O)c2c1O`, the TGI is 43.7 µM with HOP-62 NSCLC; over 100 µM with COLO 205 colon; over 100 µM with A549 NSCLC; 78.1 µM in the assay on U251 CNS; 50.9 µM with 786-0 renal; over 100 µM with OVCAR-8 ovarian. Also, the TGI was 33 µM with T-47D breast, 28.3 µM in the assay on SK-MEL-2 melanoma and over 100 µM in the assay with HCT-15 colon.
In the case of `C=C1CC2CCCC12C=O` (configuration not stated), the TGI in the assay on HOP-62 NSCLC, in the assay with COLO 205 colon, in the assay on HS 578T breast, with A549 NSCLC, in the assay on U251 CNS and in the assay with 786-0 renal was over 10 µM each time. The TGI in the assay with OVCAR-8 ovarian, in the assay with T-47D breast and in the assay on HCT-15 colon was over 10 µM in each case.
As to `NCCCNc1nc2ccccc2c2c(=O)c3cc(F)cc(F)c3sc12`, the GI50 with COLO 205 colon was 1.92 µM; in the assay with HS 578T breast, 1.47 µM; in the assay with 786-0 renal, 1.49 µM; in the assay with OVCAR-8 ovarian it was 2.1 µM; in the assay with T-47D breast, 16.2 µM; in the assay on SK-MEL-2 melanoma it was 2.67 µM. In addition, the GI50 in the assay on HCT-15 colon is 1.6 µM. Besides, the TGI in the assay with COLO 205 colon amounted to 4.62 µM; in the assay with HS 578T breast it was 3.09 µM; with 786-0 renal, 3.12 µM; with OVCAR-8 ovarian, 5.14 µM; in the assay with T-47D breast, 55.4 µM; in the assay with SK-MEL-2 melanoma, 7.04 µM. In the assay on HCT-15 colon, this molecule yielded a TGI of 3.14 µM.
For `CC[C@H]1CN2CCc3cc(OC)c(OC)cc3C2C[C@@H]1CC1NCCc2cc(OC)c(OC)cc21` (some centres not stated), the TGI in the assay on HOP-62 NSCLC amounted to 0.0815 µM; with COLO 205 colon, 0.017 µM; in the assay on HS 578T breast, 1.75 µM; in the assay on A549 NSCLC it was 0.0523 µM; in the assay with 786-0 renal, 0.128 µM; in the assay on OVCAR-8 ovarian, 0.18 µM. The values for the TGI in the assay with T-47D breast, with SK-MEL-2 melanoma and in the assay on HCT-15 colon were 0.0773 µM, 0.0542 µM and 2.02 µM, respectively.
`NC1=CC(=O)c2cccnc2C1=O`: the GI50 in the assay on HOP-62 NSCLC was 1.32 µM; in the assay with COLO 205 colon it was 3.33 µM; in the assay with HS 578T breast it was 2.28 µM; in the assay with A549 NSCLC, 3.84 µM; in the assay with U251 CNS, 1.46 µM; in the assay with 786-0 renal it was 1.78 µM. Further, the GI50 in the assay on OVCAR-8 ovarian is 1.66 µM; in the assay with SK-MEL-2 melanoma, 1.63 µM; in the assay with HCT-15 colon, 1.76 µM. Also, the TGI in the assay on HOP-62 NSCLC worked out at 2.77 µM; in the assay on COLO 205 colon, 11.7 µM; with HS 578T breast, 8.17 µM; in the assay on A549 NSCLC, 15 µM; in the assay on U251 CNS, 2.83 µM; with 786-0 renal, 3.75 µM. The TGI stood at 4.2 µM with OVCAR-8 ovarian, 3.14 µM with SK-MEL-2 melanoma and 10.2 µM in the assay on HCT-15 colon.
